Reference: ChEMBL document CHEMBL1133239, “Acid catalyzed Michael additions to artemisitene” (2000)

Assays:
Plasmodium falciparum [1] = test: Relative antimalarial activity compared to artemisinin against Plasmodium falciparum D6; assay type: functional
Plasmodium falciparum [2] = test: Relative antimalarial activity compared to artemisinin against Plasmodium falciparum W-2; assay type: functional

Row | SMILES | Relative activity (Plasmodium falciparum [1]) | Relative activity (Plasmodium falciparum [2])
1 | C[C@@H]1CC[C@H]2[C@@H](CC#N)C(=O)O[C@@H]3O[C@@]4(C)CC[C@@H]1[C@]32OO4 | 0.17 | 0.036
2 | C[C@@H]1CC[C@H]2[C@@H](CC3C=CC(=O)O3)C(=O)O[C@@H]3OC4(C)CC[C@@H]1[C@]32OO4 (single isomer, unassigned) | 0.058 | 0.03
3 | C[C@@H]1CC[C@H]2[C@@H](CC/C(=C/C(=O)c3ccccc3)c3ccccc3)C(=O)O[C@@H]3OC4(C)CC[C@@H]1[C@]32OO4 (single isomer, unassigned) | 6.2 | 0.55
4 | C[C@@H]1CC[C@H]2[C@H](CC3C=CC(=O)O3)C(=O)O[C@@H]3OC4(C)CC[C@@H]1[C@]32OO4 (single isomer, unassigned) | 0.33 | 0.037
5 | C[C@@H]1CC[C@H]2[C@@H](CC3CCCC3=O)C(=O)O[C@@H]3OC4(C)CC[C@@H]1[C@]32OO4 (single isomer, unassigned) | 0.47 | 0.29
6 | C[C@@H]1CC[C@H]2[C@@H](CCC(=O)C(C)(C)C)C(=O)O[C@@H]3OC4(C)CC[C@@H]1[C@]32OO4 (single isomer, unassigned) | 7.4 | 1.13
7 | C[C@@H]1CC[C@H]2[C@H](CCC(=O)C(C)(C)C)C(=O)O[C@@H]3OC4(C)CC[C@@H]1[C@]32OO4 (single isomer, unassigned) | 4.5 | 0.74
8 | C[C@@H]1CC[C@H]2[C@H](CC#N)C(=O)O[C@@H]3OC4(C)CC[C@@H]1[C@]32OO4 (single isomer, unassigned) | 0.17 | 0.036
9 | C=CCC[C@H]1C(=O)O[C@@H]2OC3(C)CC[C@H]4[C@H](C)CC[C@@H]1[C@@]24OO3 (single isomer, unassigned) | 2.3 | 2.9
